Test results from ChEMBL document CHEMBL3259643 (Eur J Med Chem, 2014).
Active and inactive are the calls of the source. The calls are words filed in the database; no cut-off is given here.

Key:
Neuraminidase = Neuraminidase (Influenza A virus, UniProt B4URF0); set-up: species or system Influenza A virus (A/WSN/1933(H1N1))
HEK-293T = assay: Cytotoxicity against human 293T cells at >10 uM after 48 to 72 hrs; format: cell-based
MDCK = assay: Cytotoxicity against MDCK cells at >10 uM after 48 to 72 hrs; format: cell-based, Canis lupus familiaris; details: dog
[1] = AUC (0 to 12 hrs) in ICR mouse at 10 mg/kg, po; format: ADME, organism-based; set-up: time < 12 hr, dose 10 mg/kg, route oral; details: plasma
[2] = First order rate constant associated with the terminal portion of the curve in ICR mouse at 10 mg/kg, po; format: ADME, organism-based; set-up: dose 10 mg/kg, route oral; details: in vivo
[3] = Terminal half life in ICR mouse at 10 mg/kg, po; format: ADME, organism-based; set-up: dose 10 mg/kg, route oral; details: in vivo, read-out: beta t1/2 (converted)
Mus musculus = assay: Bioavailability in ICR mouse at 0.25 mg/kg, iv; format: ADME, organism-based; details: in vivo
[4] = Apparent octanol-phosphate buffer partition coefficient, log D of the compound at 1 mg at pH 7.4 after 24 hrs by HPLC analysis; format: physicochemical
[5] = AUC (0 to infinity) in ICR mouse at 0.25 mg/kg, iv; format: ADME, organism-based; set-up: time infinity, dose 0.25 mg/kg, route intravenous; details: plasma
[6] = AUC (0 to infinity) in ICR mouse at 10 mg/kg, po; format: ADME, organism-based; set-up: time infinity, dose 10 mg/kg, route oral; details: plasma
[7] = Oral bioavailability in ICR mouse at 10 mg/kg; format: ADME, organism-based; details: in vivo
[8] = Terminal half life in ICR mouse at 0.25 mg/kg, iv; format: ADME, organism-based; set-up: dose 0.25 mg/kg, route intravenous; details: in vivo, read-out: beta t1/2 (converted)
[9] = test system: Influenza A virus (A/WSN/1933(H1N1)); assay: Antiviral activity against Influenza A virus (A/WSN/1933(H1N1)) infected in BALB/c mouse assessed as increase in survival rate at 1.2 umol/kg/day administered on day 0 intranasally bid prior to viral infection continued for day 1 to day 4 measured on day 14; format: functional
[10] = Apparent total clearance in ICR mouse at 10 mg/kg; format: ADME, organism-based; set-up: dose 10 mg/kg; details: in vivo, read-out: CLt/F (converted)
[11] = Cmax in ICR mouse at 10 mg/kg; format: ADME, organism-based; set-up: dose 10 mg/kg; details: in vivo
Caco-2 = assay: Permeability across apical to basolateral side in human Caco2 cells at 100 ug/mL after 15 to 120 mins by HPLC analysis; format: ADME, cell-based
[12] = AUC (0 to 2 hrs) in ICR mouse at 0.25 mg/kg, iv; format: ADME, organism-based; set-up: time < 2 hr, dose 0.25 mg/kg, route intravenous; details: plasma
[13] = First order rate constant associated with the terminal portion of the curve in ICR mouse at 0.25 mg/kg, iv; format: ADME, organism-based; set-up: dose 0.25 mg/kg, route intravenous; details: in vivo
[14] = test system: Influenza A virus (A/WSN/1933(H1N1)); assay: Antiviral activity against Influenza A virus (A/WSN/1933(H1N1)) infected in BALB/c mouse assessed as increase in survival rate at 2.6 umol/kg/day, po bid administered on day 0 prior to viral infection continued for day 1 to day 4 measured on day 14; format: functional, organism-based
[15] = Tmax in ICR mouse at 10 mg/kg; format: ADME, organism-based; set-up: dose 10 mg/kg; details: in vivo
[16] = Cellular uptake in MDCK2 cells measured per mg of protein at 100 ug/mL after 120 mins by HPLC analysis; format: ADME, cell-based, Canis lupus familiaris; details: dog, mdck-ii, 2 h
[17] = test system: Influenza A virus (A/WSN/1933(H1N1)); assay: Antiviral activity against Influenza A virus (A/WSN/1933(H1N1)) infected in BALB/c mouse assessed as increase in survival rate at 0.12 umol/kg/day administered on day 0 intranasally bid prior to viral infection continued for day 1 to day 4 measured on day 9; format: functional

Chain of Neuraminidase (B4URF0 whole entry): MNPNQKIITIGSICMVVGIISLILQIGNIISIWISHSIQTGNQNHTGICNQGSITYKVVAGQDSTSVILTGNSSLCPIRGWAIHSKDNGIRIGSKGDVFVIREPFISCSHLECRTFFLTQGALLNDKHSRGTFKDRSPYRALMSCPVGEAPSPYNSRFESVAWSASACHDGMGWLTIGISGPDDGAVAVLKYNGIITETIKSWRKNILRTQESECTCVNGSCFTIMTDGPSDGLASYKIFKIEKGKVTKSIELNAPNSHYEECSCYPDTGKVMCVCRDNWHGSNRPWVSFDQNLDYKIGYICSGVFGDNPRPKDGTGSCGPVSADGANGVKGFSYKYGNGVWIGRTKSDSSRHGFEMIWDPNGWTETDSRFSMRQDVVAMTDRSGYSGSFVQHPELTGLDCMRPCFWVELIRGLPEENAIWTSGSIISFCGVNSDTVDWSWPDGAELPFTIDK

Row | Structure (SMILES) | IC50 (Neuraminidase) [nM] | Activity (HEK-293T) | Activity (MDCK) | logD at 24 h [4] | Activity [14] | Activity [17] | further results
1 | CCC(CC)O[C@@H]1C=C(P(=O)(O)OCCCc2c[nH]c3ccccc23)C[C@H](N)[C@H]1NC(C)=O | 1.7 | Non-toxic | Non-toxic |  |  |  | 
2 | CCCCCCOP(=O)(O)C1=C[C@@H](OC(CC)CC)[C@H](NC(C)=O)[C@@H](NC(=N)N)C1 | 4.1 | Non-toxic | Non-toxic | 0.63 | Active | Active | AUC(0-t) at 12 h [1]: 361 ng·h/mL; k el [2]: 0.000167 s⁻¹; half-life [3]: 1.07 h; F (Mus musculus): 100%; AUC(0-inf) [5]: 173 ng·h/mL; AUC(0-inf) [6]: 867 ng·h/mL; bioavailability [7]: 12.6%; half-life [8]: 0.36 h; Activity [9]: Active; CL/F [10]: 184 mL/min/kg; Cmax [11]: 261 ng/mL; permeability (Caco-2): permeable; AUC(0-t) at 2 h [12]: 169 ng·h/mL; k el [13]: 0.000533 s⁻¹; Tmax [15]: 1 h; Drug uptake [16]: 13500 ng
3 | CCC(CC)O[C@@H]1C=C(P(=O)(O)OCCCc2ccccc2)C[C@H](NC(=N)N)[C@H]1NC(C)=O | 3.2 | Non-toxic | Non-toxic | 0.66 | Active | Active | Activity [9]: Active; Drug uptake [16]: < 2000 ng
4 | CCC(CC)O[C@@H]1C=C(P(=O)(O)OCCCc2ccccc2)C[C@H](N)[C@H]1NC(C)=O | 1.8 | Non-toxic | Non-toxic | 0.28 |  |  | 
5 | CCOC(=O)C1=C[C@@H](OC(CC)CC)[C@H](NC(C)=O)[C@@H](N)C1 |  |  |  |  | Active |  | 
6 | CCCCOP(=O)(O)C1=C[C@@H](OC(CC)CC)[C@H](NC(C)=O)[C@@H](N)C1 | 6.9 | Non-toxic | Non-toxic | -0.29 |  |  | 
7 | CCCCCCOP(=O)(O)C1=C[C@@H](OC(CC)CC)[C@H](NC(C)=O)[C@@H](N)C1 | 2.2 | Non-toxic | Non-toxic | 0.3 |  |  | 
8 | CC(=O)N[C@H]1[C@H]([C@H](O)[C@H](O)CO)OC(C(=O)O)=C[C@@H]1NC(=N)N |  |  |  |  |  | inactive | 
9 | CCCCOP(=O)(O)C1=C[C@@H](OC(CC)CC)[C@H](NC(C)=O)[C@@H](NC(=N)N)C1 | 6.7 | Non-toxic | Non-toxic | -0.16 |  |  | 
10 | CCOP(=O)(O)C1=C[C@@H](OC(CC)CC)[C@H](NC(C)=O)[C@@H](N)C1 [TAMIPHOSPHOR MONOETHYL ESTER] |  | Non-toxic | Non-toxic |  |  |  | 
11 | CCOP(=O)(O)C1=C[C@@H](OC(CC)CC)[C@H](NC(C)=O)[C@@H](NC(=N)N)C1 [TAMIPHOSPHOR MONOETHYL ESTER] |  |  |  |  | Active | Active | Activity [9]: Active
